Laboratory results from patent publication US20080064667A1, “OXAZOLE DERIVATIVES OF TETRACYCLINES” (Wyeth, priority 2003, published 2008).
Converted amounts (≈) assume the structure as drawn.

Experiments:
Experiment in all cases: MIC, broth microdilution (NCCLS)
Type in all cases: cell-based
[1] = test system: S. aureus GC2216 (ATCC Control); conditions: Staphylococcus aureus, Mueller-Hinton II broth, 18-22 hours at 35° C.
Description: (§1) Methods for in Vitro Antibacterial Evaluation
(§2) The Minimum Inhibitory Concentration (MIC)
(§3) Antimicrobial susceptibility testing. The in vitro activities of the antibiotics are determined by the broth microdilution method as recommended by the National Committee for Clinical Laboratory Standards (NCCLS) (1). Mueller-Hinton II broth (MHBII)(BBL Cockeysville, Md.) is the medium employed in the testing procedures. Microtiter plates containing serial dilutions of each antimicrobial agent are inoculated with each organism to yield the appropriate density (10^5 CFU/ml) in a 100 μl final volume. The plates are incubated for 18-22 hours at 35° C. in ambient air.
(§4) 1. NCCLS. 2000. Methods for Dilution Antimicrobial Susceptibility Tests for Bacteria That Grow Aerobically; Approved Standards: M7-A5, vol. 20. National Committe for Clinical Laboratory Standards, Wayne, Pa.

[2] = test system: H. influenzae<> GC6896 (ATCC Control); conditions: Haemophilus influenzae, Mueller-Hinton II broth, 18-22 hours at 35° C.
Description: as §1, §2, §3, §4

[3] = test system: E. coli GC1073 (tet(B)); conditions: Escherichia coli
Description: as §1, §2, §3, §4

[4] = test system: E. coli GC4559 (parent GC4560); conditions: Escherichia coli, Mueller-Hinton II broth, 18-22 hours at 35° C.
Description: as §1, §2, §3, §4

[5] = test system: E. coli GC4560 (IMP mutant); conditions: Escherichia coli
Description: as §1, §2, §3, §4

[6] = test system: S. pneumoniae* GC1894 (Clinical); conditions: Streptococcus pneumoniae, Mueller-Hinton II broth, 18-22 hours at 35° C.
Description: as §1, §2, §3, §4

[7] = test system: S. aureus GC4536 (Smith MP -In Vivo); conditions: Staphylococcus aureus, Mueller-Hinton II broth, 18-22 hours at 35° C.
Description: as §1, §2, §3, §4

[8] = test system: E. faecalis GC2242 (Van-resistant); conditions: Enterococcus faecalis, Mueller-Hinton II broth, 18-22 hours at 35° C.
Description: as §1, §2, §3, §4

[9] = test system: S. aureus GC1131 (Clinical); conditions: Staphylococcus aureus, Mueller-Hinton II broth, 18-22 hours at 35° C.
Description: as §1, §2, §3, §4

[10] = test system: S. aureus GC1079 (tet(K)); conditions: Staphylococcus aureus, Mueller-Hinton II broth, 18-22 hours at 35° C.
Description: as §1, §2, §3, §4

[11] = test system: E. coli GC2270 (tet(M)); conditions: Escherichia coli
Description: as §1, §2, §3, §4

[12] = test system: C. albicans GC3066 ATCC (Control); conditions: Candida albicans, Mueller-Hinton II broth, 18-22 hours at 35° C.
Description: as §1, §2, §3, §4

[13] = test system: E. faecalis GC4555 (ATCC Control); conditions: Enterococcus faecalis, Mueller-Hinton II broth, 18-22 hours at 35° C.
Description: as §1, §2, §3, §4

[14] = test system: S. aureus GC6466 (tet(M)); conditions: Staphylococcus aureus, Mueller-Hinton II broth, 18-22 hours at 35° C.
Description: as §1, §2, §3, §4

[15] = test system: M. catarrhalis* GC6907 (Clinical); conditions: Moraxella catarrhalis, Mueller-Hinton II broth, 18-22 hours at 35° C.
Description: as §1, §2, §3, §4

[16] = test system: S. pneumoniae* GC4465 (Clinical); conditions: Streptococcus pneumoniae, Mueller-Hinton II broth, 18-22 hours at 35° C.
Description: as §1, §2, §3, §4

[17] = test system: S. pyogenes* GC4563 (Clinical); conditions: Streptococcus pyogenes, Mueller-Hinton II broth, 18-22 hours at 35° C.
Description: as §1, §2, §3, §4

[18] = test system: E. coli GC2203 (ATCC Control); conditions: Escherichia coli, Mueller-Hinton II broth, 18-22 hours at 35° C.
Description: as §1, §2, §3, §4

| Compound | MIC [1] [µg/mL] | MIC [2] [µg/mL] | MIC [3] [µg/mL] | MIC [4] [µg/mL] | MIC [5] [µg/mL] | MIC [6] [µg/mL] | MIC [7] [µg/mL] | MIC [8] [µg/mL] | MIC [9] [µg/mL] | MIC [10] [µg/mL] | MIC [11] [µg/mL] | MIC [12] [µg/mL] | MIC [13] [µg/mL] | MIC [14] [µg/mL] | MIC [15] [µg/mL] | MIC [16] [µg/mL] | MIC [17] [µg/mL] | MIC [18] [µg/mL] |
| --- | --- | --- | --- | --- | --- | --- | --- | --- | --- | --- | --- | --- | --- | --- | --- | --- | --- | --- |
| Cc1ccc(-c2nc3cc(N(C)C)c4c(c3o2)C(=O)C2=C(O)[C@]3(O)C(=O)C(C(N)=O)=C(O)[C@@H](N(C)C)[C@@H]3C[C@@H]2C4)cc1 [Example 5, (6aR,7aS,8S,11aS)-5,8-bis(dimethylamino)-9,11a,12-trihydroxy-2-(4-methylphenyl)-11,13-dioxo-6,6a,7,7a,8,11,11a,13-octahydrotetraceno[2,1-d][1,3]oxazole-10-carboxamide] | 4 (≈ 6.99 µM) | > 64 | > 64 | > 64 | 4 (≈ 6.99 µM) | 8 (≈ 14 µM) | 4 (≈ 6.99 µM) | 4 (≈ 6.99 µM) | 4 (≈ 6.99 µM) | 4 (≈ 6.99 µM) | > 64 | > 64 | 4 (≈ 6.99 µM) | 4 (≈ 6.99 µM) | 16 (≈ 27.9 µM) | 16 (≈ 27.9 µM) | 16 (≈ 27.9 µM) | > 64 |
| CN(C)c1cc2nc(-c3ccc(C#N)cc3)oc2c2c1C[C@H]1C[C@H]3[C@H](N(C)C)C(O)=C(C(N)=O)C(=O)[C@@]3(O)C(O)=C1C2=O [Example 7, (6aR,7aS,8S,11aS)-2-(4-cyanophenyl)-5,8-bis(dimethylamino)-9,11a,12-trihydroxy-11,13-dioxo-6,6a,7,7a,8,11,11a,13-octahydrotetraceno[2,1-d][1,3]oxazole-10-carboxamide] | 8 (≈ 13.7 µM) | 64 (≈ 110 µM) | > 64 | > 64 | 8 (≈ 13.7 µM) | 16 (≈ 27.4 µM) | 8 (≈ 13.7 µM) | 8 (≈ 13.7 µM) | 8 (≈ 13.7 µM) | 8 (≈ 13.7 µM) | > 64 | > 64 | 8 (≈ 13.7 µM) | 8 (≈ 13.7 µM) | 4 (≈ 6.85 µM) | 8 (≈ 13.7 µM) | 8 (≈ 13.7 µM) | > 64 |
| CN(C)c1cc2nc(-c3cc(C(C)(C)C)ccc3O)oc2c2c1C[C@H]1C[C@H]3[C@H](N(C)C)C(O)=C(C(N)=O)C(=O)[C@@]3(O)C(O)=C1C2=O [Example 10, (6aR,7aS,8S,11aS)-2-(5-tert-butyl-2-hydroxyphenyl)-5,8-bis(dimethylamino)-9,11a,12-trihydroxy-11,13-dioxo-6,6a,7,7a,8,11,11a,13-octahydrotetraceno[2,1-d][1,3]oxazole-10-carboxamide] | 16 (≈ 25.4 µM) | > 64 | > 64 | > 64 | 32 (≈ 50.7 µM) | 8 (≈ 12.7 µM) | 16 (≈ 25.4 µM) | 8 (≈ 12.7 µM) | 8 (≈ 12.7 µM) | 16 (≈ 25.4 µM) | > 64 | > 64 | 16 (≈ 25.4 µM) | 16 (≈ 25.4 µM) | > 64 | 16 (≈ 25.4 µM) | 16 (≈ 25.4 µM) | > 64 |
| CN(C)c1cc2nc(-c3ccc(O)cc3O)oc2c2c1C[C@H]1C[C@H]3[C@H](N(C)C)C(O)=C(C(N)=O)C(=O)[C@@]3(O)C(O)=C1C2=O [Example 12, (6aR,7aS,8S,11aS)-2-(2,4-dihydroxyphenyl)-5,8-bis(dimethylamino)-9,11a,12-trihydroxy-11,13-dioxo-6,6a,7,7a,8,11,11a,13-octahydrotetraceno[2,1-d][1,3]oxazole-10-carboxamide] | 4 (≈ 6.77 µM) | 16 (≈ 27.1 µM) | > 64 | > 64 | 4 (≈ 6.77 µM) | 8 (≈ 13.5 µM) | 8 (≈ 13.5 µM) | 8 (≈ 13.5 µM) | 4 (≈ 6.77 µM) | 8 (≈ 13.5 µM) | > 64 | > 64 | 8 (≈ 13.5 µM) | 8 (≈ 13.5 µM) | 4 (≈ 6.77 µM) | 8 (≈ 13.5 µM) | 4 (≈ 6.77 µM) | 32 (≈ 54.2 µM) |
| COc1ccc(-c2nc3cc(N(C)C)c4c(c3o2)C(=O)C2=C(O)[C@]3(O)C(=O)C(C(N)=O)=C(O)[C@@H](N(C)C)[C@@H]3C[C@@H]2C4)cc1F [Example 13, (6aR,7aS,8S,11aS)-5,8-bis(dimethylamino)-2-(3-fluoro-4-methoxyphenyl)-9,11a,12-trihydroxy-11,13-dioxo-6,6a,7,7a,8,11,11a,13-octahydrotetraceno[2,1-d][1,3]oxazole-10-carboxamide] | 4 (≈ 6.59 µM) | > 64 | > 64 | > 64 | 4 (≈ 6.59 µM) | 16 (≈ 26.4 µM) | 8 (≈ 13.2 µM) | 8 (≈ 13.2 µM) | 4 (≈ 6.59 µM) | 4 (≈ 6.59 µM) | > 64 | > 64 | 8 (≈ 13.2 µM) | 4 (≈ 6.59 µM) | 16 (≈ 26.4 µM) | 32 (≈ 52.8 µM) | 16 (≈ 26.4 µM) | > 64 |
